{
  "source": "patent US20060045891A1",
  "about": "“Density-matched suspension vehicles and pharmaceutical suspensions” (priority 2004, published 2006)",
  "assay": "Suspension of spheres: sphere placed in the vehicle and centrifuged",
  "format": "physicochemical",
  "conditions": "Lucite sphere density 1.20 g/cc; two minutes at 1000 rpm; no calcium carbonate particles",
  "source_text": "Precipitated calcium carbonate particles (density 2.71 g/cc and average particle size 0.7 microns) were mixed with Vitamin E (density 0.95 g/cc) at a particle weight fraction of 0.333 (15% by volume of dense particles) to create a suspending vehicle. According to equation (1), the density of the suspending vehicle is 1.21 g/cc.\nA small Delrin sphere (density 1.35 g/cc, 3/32″ diameter) was placed in a first container holding the suspending vehicle.\nA Lucite sphere (density 1.20 g/cc, 3/32″ diameter) was placed in a second container holding the suspending vehicle and centrifuged at 2000 rpm for 2 minutes.\nIn contrast, the Lucite sphere was placed in a third container of pure Vitamin E only and centrifuged for two minutes at 1000 rpm.",
  "data": [
    {"substance": "Vitamin E", "values": [
      {"measurement": "behaviour of Lucite sphere in the vehicle after centrifuging", "value": "sank to the bottom of the container in less than one minute"}
    ]}
  ]
}
